According to ChEMBL document CHEMBL1201862, “PubChem BioAssay data set” (2004):
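Method: 48-hour compound exposure of cells in 96-well plates, five concentrations, linear interpolation of endpoints. Abbreviation: GI50, concentration required for 50% inhibition of growth.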 The source made the active and inactive calls. Rule as the data show it: active = GI50 up to about 1.1 µM and inactive = higher.

Columns and labels:
Experiment in all cases: inhibition of tumour cell growth, NCI panel, 48 h
HT-29 = system: HT-29
HL-60 = system: HL-60
SK-MEL-28 = system: SK-MEL-28
OVCAR-8 = system: OVCAR-8
IGROV-1 = system: IGROV-1
RXF 393 = system: RXF 393
HOP-92 = system: HOP-92
OVCAR-3 = system: OVCAR-3
LOX IMVI = system: LOX IMVI
SF-268 = system: SF-268
SNB-19 = system: SNB-19
786-0 = system: 786-0
TK-10 = system: TK-10
RPMI-8226 = system: RPMI-8226
HCT-15 = system: HCT-15
NCI-H226 = system: NCI-H226

SMILES | GI50 (HT-29) | GI50 (HL-60) | GI50 (SK-MEL-28) | GI50 (OVCAR-8) | GI50 (IGROV-1) | GI50 (RXF 393) | GI50 (HOP-92) | GI50 (OVCAR-3) | GI50 (LOX IMVI) | GI50 (SF-268) | GI50 (SNB-19) | GI50 (786-0) | GI50 (TK-10) | GI50 (RPMI-8226) | GI50 (HCT-15) [µM] | GI50 (NCI-H226)
CC1(C)OCC(C(O)C2OC(C)(C)OC2/C=N\O)O1 (configuration not stated) | > 100 µM (inactive) | > 100 µM (inactive) | > 100 µM (inactive) | > 100 µM (inactive) | > 100 µM (inactive) | > 100 µM (inactive) | > 100 µM (inactive) | > 100 µM (inactive) | > 100 µM (inactive) | > 100 µM (inactive) | > 100 µM (inactive) | > 100 µM (inactive) | > 100 µM (inactive) | > 100 µM (inactive) |  | 
C[C@]12CCC(=O)C=C1CC[C@@H]1[C@@H]2[C@@H](O)C[C@@]2(C)[C@H]1CC[C@]2(O)C(=O)COC(=O)COCC(=O)O | > 100 µM (inactive) | > 100 µM (inactive) | > 100 µM (inactive) | > 100 µM (inactive) | > 100 µM (inactive) |  | > 100 µM (inactive) | > 100 µM (inactive) | > 100 µM (inactive) | > 100 µM (inactive) | > 100 µM (inactive) | > 100 µM (inactive) | > 100 µM (inactive) | > 100 µM (inactive) | > 100 | > 100 µM (inactive)
O=C(c1ccc2c3c(ccc(C(=O)C(F)(F)F)c13)CC2)C(F)(F)F | 52.1 µM (inactive) |  | 62.2 µM (inactive) | 47.5 µM (inactive) | 74 µM (inactive) | 55.6 µM (inactive) | 27 µM (inactive) | 69.8 µM (inactive) | 55.7 µM (inactive) | 51.3 µM (inactive) | 86.7 µM (inactive) | 57.5 µM (inactive) | 53 µM (inactive) |  | 58.7 | > 100 µM (inactive)
O=C1CCC(c2nc3cc(Cl)ccc3o2)C(=O)N1 (configuration not stated) | > 100 µM (inactive) | > 100 µM (inactive) | > 100 µM (inactive) | > 100 µM (inactive) | > 100 µM (inactive) | > 100 µM (inactive) | > 100 µM (inactive) | > 100 µM (inactive) | > 100 µM (inactive) | > 100 µM (inactive) | > 100 µM (inactive) | > 100 µM (inactive) | > 100 µM (inactive) |  | > 100 | > 100 µM (inactive)
CC1=CC(C)(C)N=C2SC(c3ccc(Cl)cc3)=NN12 | 12 µM (inactive) | 12.2 µM (inactive) | 36.4 µM (inactive) |  | > 100 µM (inactive) |  | 27.4 µM (inactive) | 18.1 µM (inactive) | 40.1 µM (inactive) | 27.5 µM (inactive) | 50.1 µM (inactive) | 15.1 µM (inactive) | 37 µM (inactive) | 12.1 µM (inactive) | 25.4 | 21.1 µM (inactive)
Sc1nnc(COc2ccc(Cl)cc2)o1 | > 100 µM (inactive) | > 100 µM (inactive) | > 100 µM (inactive) | > 100 µM (inactive) | > 100 µM (inactive) |  | 84.3 µM (inactive) | > 100 µM (inactive) |  | > 100 µM (inactive) | > 100 µM (inactive) | > 100 µM (inactive) | > 100 µM (inactive) | > 100 µM (inactive) | 31.2 | > 100 µM (inactive)
Cn1c(=O)nc2n(-c3ccc(O)cc3)c3ccccc3nc-2c1=O | > 100 µM (inactive) | > 100 µM (inactive) | > 100 µM (inactive) | 44.5 µM (inactive) | > 100 µM (inactive) |  | 26.4 µM (inactive) | 17.9 µM (inactive) |  | 23.2 µM (inactive) | > 100 µM (inactive) | 17.3 µM (inactive) | > 100 µM (inactive) | 63.7 µM (inactive) | > 100 | 92.3 µM (inactive)
Cc1c2ccncc2c(C)c2c1[nH]c1ccc(O)c(OCC(F)(F)F)c12 | > 7.5 µM (inactive) | 2.9 µM (inactive) | 10.8 µM (inactive) | 3.03 µM (inactive) | 8.22 µM (inactive) |  | 5.47 µM (inactive) | 7.8 µM (inactive) | 1.38 µM (inactive) | 8.67 µM (inactive) | 2.11 µM (inactive) | 2.01 µM (inactive) | 13.6 µM (inactive) | 2.1 µM (inactive) |  | 8.13 µM (inactive)
CCOC(=O)CCn1[nH]c(=O)c(Cl)c(Cl)c1=O | > 100 µM (inactive) | > 100 µM (inactive) | > 100 µM (inactive) | > 100 µM (inactive) | > 100 µM (inactive) | > 100 µM (inactive) | > 100 µM (inactive) | > 100 µM (inactive) | > 100 µM (inactive) | > 100 µM (inactive) | > 100 µM (inactive) | > 100 µM (inactive) | > 100 µM (inactive) |  | > 100 | > 100 µM (inactive)
CC1CCC(C(C)C)C(O[C@@H]2OC(=O)C[C@@H]2Sc2ccccc2)C1 (some centres not stated) | 17.5 µM (inactive) | 18.2 µM (inactive) | 22.3 µM (inactive) | 18.9 µM (inactive) | 40.2 µM (inactive) | 13.4 µM (inactive) |  | 14.5 µM (inactive) | 13.1 µM (inactive) | 24.4 µM (inactive) | 35.1 µM (inactive) | 21 µM (inactive) | 53.3 µM (inactive) | 13.3 µM (inactive) | 19.5 | 
COc1cc(-c2cc(O)c3ccccc3n2)cc(OC)c1OC | > 75 µM (inactive) | > 7.5 µM (inactive) | > 75 µM (inactive) | > 75 µM (inactive) |  | > 75 µM (inactive) |  | > 75 µM (inactive) | > 75 µM (inactive) | > 75 µM (inactive) | > 75 µM (inactive) | > 75 µM (inactive) | > 75 µM (inactive) | > 75 µM (inactive) | > 75 | 
CC(C)(CN1CCCCC1)C(=O)/C=C/c1ccccc1 | 7.36 µM (inactive) |  | 15.6 µM (inactive) | 15.8 µM (inactive) | 22.8 µM (inactive) | 11.9 µM (inactive) |  | 6.07 µM (inactive) | 18.8 µM (inactive) | 13.3 µM (inactive) | 16.4 µM (inactive) | 13.6 µM (inactive) | 16.3 µM (inactive) | 14.7 µM (inactive) | 13.1 | 29 µM (inactive)
CCC(C)(C)NC1=C(NC(C)=O)C(=O)c2ccccc2C1=O | > 75 µM (inactive) | 16.7 µM (inactive) | 61.5 µM (inactive) | 54.8 µM (inactive) | > 75 µM (inactive) | 25 µM (inactive) |  | 34.8 µM (inactive) | 29.8 µM (inactive) | > 75 µM (inactive) | > 75 µM (inactive) | > 75 µM (inactive) | > 75 µM (inactive) |  | 32.9 | > 75 µM (inactive)
OCC1=CC(NC2CC(CO)C(O)C(O)C2O)C(O)C(O)C1O (configuration not stated) | > 100 µM (inactive) |  | > 100 µM (inactive) | > 100 µM (inactive) | > 100 µM (inactive) | > 100 µM (inactive) |  | > 100 µM (inactive) | > 100 µM (inactive) |  | > 100 µM (inactive) | > 100 µM (inactive) | > 100 µM (inactive) | > 100 µM (inactive) | > 100 | 94.4 µM (inactive)
